For 3 molecules, binding and KD results are on record in publication PMC10952710 (2023).

In assay [1] the test system is synthetic neomycin-sensing riboswitch, 2FA-labeled (RNA, riboswitch, 2-fluoroadenine at 16, 17 and 24) GGCUGCUUGUCCUUUAAUGGUCCAGCC
Kind of assay: 19F NMR titration. Particulars: 303 K; saturating ligand; 215-1200 µM RNA, 1-1.5 equivalents ligand.

For assay [2] the test system is unchanged. Description: ITC. Particulars: 200 mM NaCl, 10 mM MgCl2, 20 mM Na-cacodylate, 1 mM spermidine, pH 6.8, 37 °C, one-site model.

For `NC[C@@H]1O[C@H](O[C@H]2[C@@H](O)[C@H](O[C@@H]3[C@@H](O)[C@H](N)C[C@H](N)[C@H]3O[C@H]3O[C@H](CN)[C@@H](O)[C@H](O)[C@H]3N)O[C@@H]2CO)[C@H](N)[C@@H](O)[C@@H]1O`, the binding entry in assay [1] was “yes”.

For the molecule `NC[C@H]1O[C@H](O[C@H]2[C@H](O[C@@H]3O[C@H](CO)[C@@H](O)[C@H]3O)[C@@H](O)[C@H](N)C[C@@H]2N)[C@H](N)[C@@H](O)[C@@H]1O`, the KD (as a rule, the constant that tells how readily two partners part at equilibrium) in assay [2] (10 µM RNA, 100 µM ligand) amounted to 0.356 ± 0.019 µM.

Turning to `NC[C@@H]1O[C@H](O[C@H]2[C@@H](O)[C@H](O[C@@H]3[C@@H](O)[C@H](N)C[C@H](N)[C@H]3O[C@H]3O[C@H](CO)[C@@H](O)[C@H](O)[C@H]3N)O[C@@H]2CO)[C@H](N)[C@@H](O)[C@@H]1O`, the KD in assay [2] (30 µM RNA, 300 µM ligand) worked out at 5.7 ± 3.8 µM. That is a single-digit micromolar value.
